Where a SMILES comes first, the peptide text is derived from it. [ ]: non-standard residue; d: D form. d2Nal = N[C@H](Cc1ccc2ccccc2c1)C(=O)O

From ChEMBL document CHEMBL1131057, “Peptidomimetic growth hormone secretagogues. Design considerations and therapeutic potential” (J Med Chem, 1998) come the findings set out here.

Series [1] is described as follows: Compound was evaluated for the half-life in rats. In kind it is ADME, organism-based. The note with it: rat, in vivo.
For series [2], the species on record is Rattus norvegicus. Nature of the series: compound was evaluated for GH release in the rat. The series is classed as functional, organism-based.
Series [3] is described as follows: Compound was evaluated for the systemic clearance rate in rats. In kind it is ADME, organism-based. The note with it: rat, in vivo; read-out: Clearance rate.

For the molecule `C[C@H](NC(=O)[C@@H](Cc1ccc2ccccc2c1)NC(=O)[C@@H](C)N)C(=O)N[C@@H](Cc1c[nH]c2ccccc12)C(=O)N[C@H](Cc1ccccc1)C(=O)N[C@@H](CCCCN)C(N)=O` [PRALMORELIN] (H-[dA][d2Nal]AW[dF]K-NH2), the half-life in series [1] was found to be 9 min. Further, in series [2], a half-maximal response (EC50) required 3 nM. Moreover, the clearance in series [3] is 23 mL/min/kg.
